IC50 data for 18 compounds are collected here from patent publication US8685977B2, “Chemical compounds” (Pfizer Limited, priority 2010, dated 2014).

T1 sequence (Q15858 whole entry): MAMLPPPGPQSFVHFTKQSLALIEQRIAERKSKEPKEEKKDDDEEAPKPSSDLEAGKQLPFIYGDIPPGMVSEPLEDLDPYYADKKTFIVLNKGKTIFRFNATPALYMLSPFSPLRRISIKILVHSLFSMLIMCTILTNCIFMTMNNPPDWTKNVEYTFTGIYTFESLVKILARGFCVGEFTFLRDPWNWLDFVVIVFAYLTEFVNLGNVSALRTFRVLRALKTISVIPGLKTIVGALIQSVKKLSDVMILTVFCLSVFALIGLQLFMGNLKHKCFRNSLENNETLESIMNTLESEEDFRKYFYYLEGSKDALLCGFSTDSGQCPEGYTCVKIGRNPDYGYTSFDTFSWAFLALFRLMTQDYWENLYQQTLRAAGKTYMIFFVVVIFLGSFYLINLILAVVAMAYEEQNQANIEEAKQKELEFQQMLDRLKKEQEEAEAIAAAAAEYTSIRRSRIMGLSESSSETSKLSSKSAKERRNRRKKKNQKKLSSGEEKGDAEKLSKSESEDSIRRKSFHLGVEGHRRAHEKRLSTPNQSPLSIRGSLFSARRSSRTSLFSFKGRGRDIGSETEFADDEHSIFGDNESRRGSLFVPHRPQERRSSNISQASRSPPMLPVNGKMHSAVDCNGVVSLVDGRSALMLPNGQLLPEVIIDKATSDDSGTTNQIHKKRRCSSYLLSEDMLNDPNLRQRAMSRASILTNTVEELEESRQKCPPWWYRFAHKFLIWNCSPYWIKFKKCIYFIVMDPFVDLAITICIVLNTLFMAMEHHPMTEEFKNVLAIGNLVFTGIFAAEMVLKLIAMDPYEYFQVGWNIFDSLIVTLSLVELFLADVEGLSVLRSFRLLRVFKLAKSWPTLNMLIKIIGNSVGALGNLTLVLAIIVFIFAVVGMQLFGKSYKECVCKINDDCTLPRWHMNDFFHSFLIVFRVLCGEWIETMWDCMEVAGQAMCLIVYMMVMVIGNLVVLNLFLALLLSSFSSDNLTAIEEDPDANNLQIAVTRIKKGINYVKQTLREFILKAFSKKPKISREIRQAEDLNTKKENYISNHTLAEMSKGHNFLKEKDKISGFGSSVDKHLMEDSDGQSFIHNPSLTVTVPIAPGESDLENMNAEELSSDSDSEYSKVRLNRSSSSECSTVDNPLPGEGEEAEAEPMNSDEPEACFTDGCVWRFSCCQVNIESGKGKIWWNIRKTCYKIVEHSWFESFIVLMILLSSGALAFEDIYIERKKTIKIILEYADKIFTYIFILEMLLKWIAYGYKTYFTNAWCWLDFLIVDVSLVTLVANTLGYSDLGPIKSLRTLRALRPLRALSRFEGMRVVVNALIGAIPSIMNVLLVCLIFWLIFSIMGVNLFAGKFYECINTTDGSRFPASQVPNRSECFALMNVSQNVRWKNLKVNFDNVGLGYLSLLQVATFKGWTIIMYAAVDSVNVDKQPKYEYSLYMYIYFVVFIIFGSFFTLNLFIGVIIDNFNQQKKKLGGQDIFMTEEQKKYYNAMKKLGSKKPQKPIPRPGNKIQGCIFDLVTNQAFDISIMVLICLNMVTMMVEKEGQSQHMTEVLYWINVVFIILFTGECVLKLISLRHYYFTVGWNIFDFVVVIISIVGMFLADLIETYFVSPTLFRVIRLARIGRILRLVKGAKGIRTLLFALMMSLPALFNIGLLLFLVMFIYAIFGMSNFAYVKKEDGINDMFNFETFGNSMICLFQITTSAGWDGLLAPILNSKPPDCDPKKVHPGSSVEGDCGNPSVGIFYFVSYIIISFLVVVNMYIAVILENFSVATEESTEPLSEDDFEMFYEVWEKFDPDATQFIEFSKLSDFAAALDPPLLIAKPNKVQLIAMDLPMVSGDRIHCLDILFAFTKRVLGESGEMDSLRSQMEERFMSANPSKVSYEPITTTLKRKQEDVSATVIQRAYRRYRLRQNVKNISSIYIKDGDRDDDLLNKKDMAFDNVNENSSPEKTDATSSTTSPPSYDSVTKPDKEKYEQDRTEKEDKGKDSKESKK

The experiment concerns the target T1, Nav1.7 (or SCN9A) channel (Homo sapiens, UniProt Q15858).
T1 construct: expressed in transfected cells
As to the kind of experiment: Nav1.7 Ionworks Quattro automated electrophysiology assay (HEK cells expressing hSCN9A). The class given is cell-based. Particulars: Ionworks assay (IW), read-out: Nav1.7 EIC50 (IW). How it is done: The ability of the compounds of formula (I) to block the Nav1.7 (or SCN9A) channel was measured using the assays described below. Human Embryonic Kidney (HEK) cells were transfected with an hSCN9A construct using lipofectamine reagent (Invitrogen), using standard techniques. Cells stably expressing the hSCN9A constructs were identified by their resistance to G-418 (400 μg/ml). Clones were screened for expression using the whole-cell voltage-clamp technique. HEK cells stably transfected with hSCN9A were maintained in DMEM medium supplemented with 10% heat-inactivated fetal bovine serum and 400 μg/ml G-418 in an incubator at 37° C. with a humidified atmosphere of 10% CO2. For HTS, cells were harvested from flasks by trypsinization and replated in an appropriate multi-well plate (typically 96 or 384 wells/plate) such that confluence would be achieved within 24 hours of plating. For electrophysiological studies, cells were removed from the culture flask by brief trypsinization and re-plated at low density onto glass cover slips. Cells were typically used for electrophysiological experiments within 24 to 72 hours after plating. Electrophysiological assays were also conducted using the lonworks Quattro automated electrophysiological platform (Molecular Devices Corp). Intracellular and extracellular solutions were as described above with the following changes, 100 μg/ml amphotericin was added to the intracellular solution to perforate the membrane and allow electrical access to the cells. hSCN9A cells were grown and harvested as for PatchXpress and cells were resuspended in extracellular solution at a concentration of 3−4×10^6 cells/ml. The onboard liquid handling facility of the lonworks Quattro was used for dispensing cells and application of test compounds. A voltage protocol was then applied that comprised of a voltage step to fully inactivate the sodium channels, followed by a brief hyperpolarized recovery period to allow partial recovery from inactivation for unblocked sodium channels, followed by a test depolarized voltage step to assess magnitude of inhibition by test compound. Compound effect was determined based on current amplitude difference between the pre-compound addition and post-compound addition scans. Compounds of the Examples were tested in the assays described above and found to have the Nav1.7 EIC50 (μM) values specified in the table below. All data are derived from the PatchXpress assay unless explicitly stated otherwise.
A general note: The patch-clamp technique gives a direct electrical read-out from membranes.
In the case of `CS(=O)(=O)NC(=O)c1ccc(Oc2cc(C(F)(F)F)ccc2Cl)cc1` [Example 207, 4-[2-chloro-5-(trifluoromethyl)phenoxy]-N-(methylsulfonyl)benzamide], the IC50 amounted to 13.7 µM.

Regarding `CS(=O)(=O)NC(=O)c1ccc(Oc2ccc(F)c(C(F)(F)F)c2)cc1` [Example 208, 4-[4-fluoro-3-(trifluoromethyl)phenoxy]-N-(methylsulfonyl)benzamide], the IC50 was determined as 18.7 µM.

On to `CS(=O)(=O)NC(=O)c1ccc(Oc2ccccc2OC(F)(F)F)cc1` [Example 209, N-(methylsulfonyl)-4-[2-(trifluoromethoxy)phenoxy]benzamide], for which the IC50 came out at 28.2 µM.

For the compound `CS(=O)(=O)NC(=O)c1ccc(Oc2cccc(C(F)(F)F)c2Cl)cc1` [Example 210, 4-[2-chloro-3-(trifluoromethyl)phenoxy]-N-(methylsulfonyl)benzamide], the IC50 stood at 288 µM.

Regarding `CS(=O)(=O)NC(=O)c1ccc(Oc2ccccc2C#N)cc1` [Example 211, 4-(2-cyanophenoxy)-N-(methylsulfonyl)benzamide], the IC50 was 67 µM.

Consider `COc1c(C(=O)NS(C)(=O)=O)ccc(Oc2ccc(Cl)c(F)c2)c1F` [Example 221, 4-(4-chloro-3-fluorophenoxy)-3-fluoro-2-methoxy-N-(methylsulfonyl)benzamide], for which the IC50 stood at 300 µM.

On to `COc1c(C(=O)NS(C)(=O)=O)ccc(Oc2ccc(C)cc2)c1F` [Example 226, 3-fluoro-2-methoxy-4-(4-methylphenoxy)-N-(methylsulfonyl)benzamide], for which the IC50 amounted to 300 µM.

As for `COc1cc(Oc2ccc(Cl)cc2)ccc1C(=O)NS(C)(=O)=O` [Example 235, 4-(4-chlorophenoxy)-2-methoxy-N-(methylsulfonyl)benzamide], the IC50 was determined as 36.6 µM.

As for `COc1cc(C(=O)NS(C)(=O)=O)ccc1Oc1ccc(F)c(C(F)(F)F)c1` [Example 241, 4-[4-fluoro-3-(trifluoromethyl)phenoxy]-3-methoxy-N-(methylsulfonyl)benzamide], the IC50 was determined as 144 µM.

Take `CS(=O)(=O)NC(=O)c1ccc(Oc2ccc(C(F)(F)F)cc2)cc1C#N` [Example 243, 2-cyano-N-(methylsulfonyl)-4-[4-(trifluoromethyl)phenoxy]benzamide]: the IC50 worked out at 11.9 µM.

Regarding `CCOc1cccc(Oc2ccc(C(=O)NS(C)(=O)=O)cc2)c1` [Example 259, 4-(3-ethoxyphenoxy)-N-(methylsulfonyl)benzamide], the IC50 was greater than 323 µM.

For the compound `CS(=O)(=O)NC(=O)c1ccc(Oc2ccccc2C(F)(F)F)c(C#N)c1` [Example 271, 3-cyano-N-(methylsulfonyl)-4-[2-(trifluoromethyl)phenoxy]benzamide], the IC50 was greater than 323 µM.

Take `CCOc1ccccc1Oc1ccc(C(=O)NS(C)(=O)=O)cc1C#N` [Example 273, 3-cyano-4-(2-ethoxyphenoxy)-N-(methylsulfonyl)benzamide]: the IC50 worked out at 44.8 µM.

`COc1ccc(Oc2ccc(C(=O)NS(C)(=O)=O)cc2C#N)cc1` [Example 274, 3-cyano-4-(4-methoxyphenoxy)-N-(methylsulfonyl)benzamide]: the IC50 was found to be 277 µM.

As to `Cc1ccccc1Oc1ccc(C(=O)NS(C)(=O)=O)cc1C#N` [Example 275, 3-cyano-4-(2-methylphenoxy)-N-(methylsulfonyl)benzamide], the IC50 is 116 µM.

As to `CS(=O)(=O)NC(=O)c1cc(Cl)c(Oc2ccccc2Cl)cc1F` [Example 300, 5-chloro-4-(2-chlorophenoxy)-2-fluoro-N-(methylsulfonyl)benzamide], the IC50 was 3.91 µM.

Consider `COc1ccc(Oc2cc(F)c(C(=O)NS(C)(=O)=O)cc2Cl)cc1` [Example 301, 5-chloro-2-fluoro-4-(4-methoxyphenoxy)-N-(methylsulfonyl)benzamide], for which the IC50 was determined as 61.7 µM.

As for `CS(=O)(=O)NC(=O)c1cc(F)c(Oc2ccccc2C#N)cc1F` [Example 327, 4-(2-cyanophenoxy)-2,5-difluoro-N-(methylsulfonyl)benzamide], the IC50 is greater than 323 µM.
